What all share (format): cell-based
One assay has as its system Neuro-2a cells. The assay can be described thus: Neurite outgrowth in mouse neuroblastoma Neuro-2a cells (phase-contrast microscopy). The following applies: 10 μg/mL, 48 hours culture, vs control without compound. As for the experimental part: Using mouse-derived neuroblastoma cells that are model cells used to examine neurite outgrowth effect, the inductive action of the NAD analogue of the present invention on the outgrowth of neurites was examined. Mouse-derived neuroblastoma cells (Neuro-2a cells) (obtained from the Health Science Research Resources Bank) were adjusted to a concentration of 10^6 cells/mL, and the cells were then cultured at 37° C. in a 10% fetal bovine serum-added Eagle's minimal essential (EME) medium culture solution in the presence of 5% CO2.
The above-described Neuro-2a cells were cultured for 3 hours, and the medium was then exchanged with a fresh one of the same type as described above. Then, 10 μg/mL of the NAD analogue of the present invention was added thereto, and the culture was further continued for 48 hours. Thereafter, the morphological alteration of the cell was observed under a phase-contrast microscope. […] However, when compared with the case of adding the NAD analogue of the present invention to the cells, the length of such a neurite was apparently short. Moreover, the same experiment as described above was carried out using commercially available β-NAD.

The subject of assay [1] is fetal rat midbrain dopaminergic nerve cells. The assay can be described thus: Neurite outgrowth in fetal rat midbrain dopaminergic nerve cells (anti-tyrosine hydroxylase immunostaining, Neurolucida). The following applies: for length of neurites elongated from the cell bodies (concentration dependence): 0.01, 0.1, 1.0 and 10 μg/mL, vs control (FIG. 6). How it is done:
Fetuses were removed from a Sprague-Dawley (SD) rat that was 15 days pregnant, and a ventral portion of midbrain was then cut out under a stereoscopic microscope. The obtained portion was chopped with a surgical knife, and was then treated at 37° C. in a 0.25% trypsin-containing PBS for 20 minutes, so that the cells were dispersed. Thereafter, the resulting cells were treated with PBS that contained 50 μg/mL deoxyribonuclease (DNase I) and 50 μg/mL trypsin inhibitor at 37° C. for 5 minutes, so as to obtain fetal rat midbrain dopaminergic nerve cells. The thus obtained fetal rat midbrain dopaminergic nerve cells were cultured at 37° C. in a 10% bovine serum-added Dulbecco's modified Eagle's medium (DMEM) culture solution in the presence of 5% CO2.
The above-described fetal rat midbrain dopaminergic nerve cells were cultured for 2 days, and the culture solution was then exchanged with a fresh one. The NAD analogue of the present invention was added to the cells in various concentrations of 0 (control), 0.01, 0.1, 1.0 and 10 μg/mL, and the obtained mixture was further cultured for 3 days. On the 5th day of the culture, the dopaminergic nerve cells were stained with an anti-tyrosine hydroxylase antibody (manufactured by Pel-Freez) and a Fluorescein (FITC)-labeled secondary antibody (manufactured by Jackson ImmunoResearch Laboratories, Inc.) according to an immunostaining method. Then, the length and number of neurites elongated from the cell bodies of the stained cells were then measured using Neurolucida (manufactured by Micro Bright Field). […] Moreover, the same experiment as described above was carried out using commercially available β-NAD.
The lengths of neurites elongated from the cells were measured, and a comparison was made on the measurement results. When 10 μg/mL of the NAD analogue of the present invention was added to the cells, the length of the obtained neurite became approximately 150% if the length of a neurite in the control was defined as 100%. […] It is noted that 45 control cells and 38 test cells were subjected to the measurement, and the results were shown as average values.
FIG. 8 is a graph showing a quantitative change in the effect of the NAD analogue of the present invention to allow neurites to elongate from fetal rat brain dopaminergic cells. […] Moreover, the same experiment as described above was carried out using commercially available β-NAD.

A further assay deals with NB-1 cells. The assay can be described thus: Neurite outgrowth in human neuroblastoma-derived NB-1 cells (phase-contrast microscopy). The following applies: 10 μg/mL; for morphological alteration of the cells (neurite outgrowth): NB-1 cells 10^3 cells/mL, observed on the 10th day (FIG. 15). How it is done: Using human neuroblastoma cell-derived cells as model cells for neurite outgrowth, the action of the NAD analogue of the present invention to induce the outgrowth of neurites was examined. Human-derived neuroblastoma cells (NB-1 cells) (obtained from the Health Science Research Resources Bank) were adjusted to a concentration of 10^3 cells/mL, and the cells were then cultured at 37° C. in a 10% fetal bovine serum-added Eagle's minimal essential medium (EME) culture solution in the presence of 5% CO2.
The above-described NB-1 cells were cultured for 3 hours, and the medium was then exchanged with a fresh one of the same type as described above. Then, 10 μg/mL of the NAD analogue of the present invention was added thereto, and the culture was further continued. Thereafter, the morphological alteration of the cells was observed under a phase-contrast microscope. During the culture, the culture solution was exchanged with a fresh one every 4 or 5 days. […] However, when compared with the case of adding the NAD analogue of the present invention to the cells, the length of such a neurite was apparently short. Moreover, the same experiment as described above was carried out using commercially available β-NAD.
The number of human neuroblastoma-derived cells (NB-cells), which were to be used as model cells for studying neurite outgrowth effect, was adjusted to 10^6 cells/mL. Thus prepared NB-1 cells were cultured in an Eagle's MEM medium, to which calf serum had been added to a final concentration of 10% and to which 10 μg/mL of the NAD analogue of the present invention had also been added. After 7 days passed, the morphological alteration of the cells was observed under a phase-contrast microscope at a magnification of 200 times.

In assay [2] the test system is HL-60 cells. Kind of assay: Growth suppression of human myeloid leukemia cells (cell count). The following applies: tested 0, 2.0, 4.0, 8.0 μg/mL, 5 days, t-test p<0.05 (FIG. 17). As for the experimental part:
The number of human myeloid leukemia cells (HL-60 cells) was adjusted to 1.0×10^4 cells/mL. The thus prepared HL-60 cells were cultured in an Eagle's MEM medium, to which calf serum had been added to a final concentration of 10% and to which the NAD analogue of the present invention had also been added in various concentrations of 0, 2.0, 4.0, and 8.0 μg/mL. After 5 days passed, the number of cells was counted.
(§1) Analysis was carried out by a t-test. It was determined that p<0.05 indicated a significant difference.

Assay [3] relates to HL-60 cells. Kind of assay: Apoptosis induction in human myeloid leukemia cells (nuclear staining, DNA electrophoresis). As for the experimental part:
The number of human myeloid leukemia cells (HL-60 cells) was adjusted to 1.0×10^4 cells/mL. The thus prepared HL-60 cells were cultured in an RPMI medium, to which calf serum had been added to a final concentration of 10% and to which the NAD analogue of the present invention had also been added in a concentration of 10 μg/mL or 20 μg/mL. Four days later, the cells were subjected to nuclear staining, and they were then observed under a fluorescence microscope. Furthermore, DNA was extracted from the cells according to an ordinary method and was then electrophoresed.

A further assay concerns UF-1 cells. Kind of assay: Growth suppression of retinoic acid-resistant leukemia cells (cell count). The following applies: tested 0, 2.0, 4.0, 8.0 μg/mL, 28 days, t-test p<0.05 (FIG. 19). As for the experimental part: The number of retinoic acid-resistant leukemia cells (UF-1 cells) was adjusted to 1.0×10^4 cells/mL. The thus prepared UF-1 cells were cultured in an RPMI medium, to which calf serum had been added to a final concentration of 10% and to which the NAD analogue of the present invention had also been added in various concentrations of 0, 2.0, 4.0, and 8.0 μg/mL. After 28 days passed, the number of cells was counted.
Analysis was carried out by a t-test. It was determined that p<0.05 indicated a significant difference. […] A differentiation induction therapy using retinoic acid has conventionally been carried out for the treatment of myeloid leukemia cells. It has been known that the leukemia cells eventually become resistant to retinoic acid, and thus the effect of retinoic acid becomes deactivated. However, from the results of the test using the NAD analogue of the present invention, it was confirmed that the NAD analogue of the present invention has an action to suppress the growth of even leukemia cells, which have acquired resistance to retinoic acid. In general, cells are not cultured for such a long period of time. The above-mentioned results were epoch-making in the sense that they were found after the culture for 28 days.

In the next assay the test system is HT1080 cells. The assay can be described thus: Growth suppression of human fibrosarcoma cells (cell count). The following applies: tested 0, 2.0, 4.0, 8.0 μg/mL, 7 days, t-test p<0.05 (FIG. 20). How it is done:
The number of human fibrosarcoma cells (HT1080 cells) was adjusted to 1.0×10^4 cells/mL. Thus prepared HT1080 cells were cultured in an Eagle's MEM medium, to which calf serum had been added to a final concentration of 10% and to which the NAD analogue of the present invention had also been added in various concentrations of 0, 2.0, 4.0, and 8.0 μg/mL. After 7 days passed, the number of cells was counted.
as §1

In the next assay the test system is HT29 cells. The assay can be described thus: Growth suppression of human colon-adenocarcinoma cells (cell count). The following applies: tested 0, 2.0, 4.0, 8.0 μg/mL, 7 days, t-test p<0.05 (FIG. 21). As for the experimental part: The number of human colon-adenocarcinoma cells (HT29 cells) was adjusted to 1.0×10^4 cells/mL. Thus prepared HT29 cells were cultured in an Eagle's MEM medium, to which calf serum had been added to a final concentration of 10% and to which the NAD analogue of the present invention had also been added in various concentrations of 0, 2.0, 4.0, and 8.0 μg/mL. After 7 days passed, the number of cells was counted.
as §1

Results on two molecules are retold here after US8481711B2, “Neurite outgrowth agent” (Hidenori Kamanishi, priority 2010, dated 2013).

For “3-(aminocarbonyl)-1-[5-O-[[1-(6-amino-9H-purin-9-yl)-1-deoxy-β-D-ribofuranose-5-O-yl]phosphonyloxy(oxylato)phosphinyl]-β-L-ribofuranosyl]pyridinium [NAD analogue of the present invention]”, in the assay on Neuro-2a cells, the “morphological alteration of the cell (neurite outgrowth)” value was “neurites (nerve axon-like projections) appeared from Neuro-2a cells and that these neurites elongated from the cells”. Also, in assay [1] (10 μg/mL, average of 38 test cells vs 45 control cells (FIG. 7)), the “length of the neurite (control defined as 100%)” value is “approximately 150%”. Moreover, the “length of neurites elongated from the cell bodies (concentration dependence)” value in assay [1] (3 days) was “the higher the concentration of the NAD analogue of the present invention in the fetal rat midbrain nerve cells, the longer a neurite”. For the same molecule, the “concentration whose addition allows neurites to elongate” value in assay [1] (fetal rat brain dopaminergic cells (FIG. 8)) was found to be 0.1 µg/mL. Also, the “formation of varicosities on the projection” value in assay [1] (fetal rat midbrain nerve cells, 0 to 10 μg/mL, 3 days) was “forms a large number of knobby, what is called “varicosities” on the projection”. Besides, the “morphological alteration of the cells (neurite outgrowth)” value with NB-1 cells is “neurites (nerve axon-like projections) appeared from NB-1 cells and that these neurites elongated from the cells”. For the same molecule, the “morphological alteration of the cells (neurite-like structures)” value with NB-1 cells (NB-1 cells 10^6 cells/mL, after 7 days (FIG. 16)) was “neurite-like structures elongated more significantly”. Further, the “concentration at which growth of the HL-60 cells was obviously suppressed” value in the assay on HL-60 cells [2] was at least 2.0 µg/mL. The “shape of the nucleus (nuclear staining, fluorescence microscope)” value in the assay with HL-60 cells [3] (HL-60 cells cultured for 4 days with compound (FIG. 18B)) is recorded as “the breakage of the nucleus in the HL-60 cell was clearly observed”. In the assay with HL-60 cells [3] (HL-60 cells, 10 μg/mL or 20 μg/mL, 4 days (FIG. 18C lanes 3 and 4)), the “DNA fragmentation (electrophoresis of extracted DNA)” value is “fragmentation of the DNA due to apoptosis was observed in the form of a “ladder.””. Also, the “concentration at which growth of the UF-1 cells was significantly suppressed” value in the assay with UF-1 cells is at least 8.0 µg/mL. Moreover, the “concentration at which growth of the cells was significantly suppressed” value in the assay on HT1080 cells is at least 4.0 µg/mL; in the assay on HT29 cells, at least 2 µg/mL.
For `NC(=O)c1ccc[n+]([C@@H]2O[C@H](COP(=O)([O-])OP(=O)(O)OC[C@H]3O[C@@H](n4cnc5c(N)ncnc54)[C@H](O)[C@@H]3O)[C@@H](O)[C@H]2O)c1` [β-NAD, reference compound], the “morphological alteration of the cell (neurite outgrowth)” value with Neuro-2a cells is “no change in neurites was found”. Besides, the “length of neurites elongated from the cell bodies (concentration dependence)” value in assay [1] (3 days) is “the outgrowth of neurites was not observed”. Besides, in assay [1] (fetal rat brain dopaminergic cells), the “outgrowth of neurites (same experiment as FIG. 8)” value is given as “the outgrowth of neurites was not observed”. Moreover, in the assay on NB-1 cells, the “morphological alteration of the cells (neurite outgrowth)” value is recorded as “no change in neurites was found”.
